Reference: US6670394B1, “Method for treating COPD” (SmithKline Beecham Corporation, priority 1999, dated 2003)

What was measured:
[1] = tested on: COPD; test: Administration to humans suffering from COPD; assay type: in vivo, human
Method: As regards treating COPD, the compound cis-[4-cyano-4-(3-cyclopentyloxy-4-methoxyphenyl)cyclohexan-1-carboxylate] was administered to humans suffering from COPD.

[2] = biological target: T1, low affinity form of PDE 4 (human monocyte PDE 4 / hrPDE) (Homo sapiens, UniProt P27815); test: PDE 4 catalytic activity assay (low affinity form, LPDE 4); assay type: biochemical; conditions: HPDE 4 IC50/LPDE 4 IC50
T1 construct: made in house; host or cells: yeast
Excerpt: Overall, most of the recombinant PDE 4 expressed in this system exists as LPDE 4 and only a small fraction as HPDE 4. Consequently, inhibition of recombinant PDE 4 catalytic activity primarily reflects the actions of compounds at LPDE 4. Inhibition of PDE 4 catalytic activity can thus be used as an index of the potency of compounds at LPDE 4.

[3] = tested on: TNFα production from isolated human monocytes; acid secretion in isolated rabbit parietal glands; test: Therapeutic index, in vitro comparison: TNFα suppression in human monocytes versus acid secretion in rabbit parietal glands; assay type: cell-based; conditions: in comparison with R-rolipram
Method: Samples were then centrifuged and radioactivity in aliquots of the supernatant fraction and pellet were determined. […] The data were expressed as a percent of a response produced by a maximal concentration of histamine (100 μM). EC50 values were determined by linear interpolation using the maximum response obtained for each compound.
TNFα inhibition was assessed in human peripheral blood monocytes which were purified (Collata) from freshly obtained buffy coats or plasma-phoresis residues of blood from normal human donors. […] The cells were allowed to adhere for 1 hr, after which time the supernatant was aspirated and 1 ml of fresh medium (RPMI-1640 containing 1% fetal calf serum and penicillin/streptomycin at 10 U/ml) was added. The cells were incubated for 45 min in the presence or absence of test compounds at concentrations ranging from 1 nM to 1 mM prior to the addition of LPS (E. coli. 055:B5, Sigma Chemicals) to yield a final concentration of 100 ng/ml. […]
Levels of TNFα were measured using a ELISA (Winston) employing a murine monoclonal anti-human TNFα antibody (see below) as the capture antibody and a polyclonal rabbit antihuman TNFα as the second antibody. […] TNFα levels in samples were calculated from a standard curve generated with recombinant human TNFα produced in E. coli. […]

[4] = tested on: acid secretion; conditions: rats, particularly in combination with an activator of adenylate cyclase such as histamine; cited from earlier work
[5] = clinical studies; cited from earlier work
[6] = biological target: high affinity rolipram binding site of PDE 4; test: [3H]-rolipram binding competition assay (high affinity form, HPDE 4); conditions: competition for 1 nM [3H]-rolipram, rat brain high speed supernatants, 1 hour at 30° C.
Method: Rat brain high speed supernatants were used as a source of protein. […] The assay was run for 1 hour at 30° C. The reaction was terminated and bound ligand was separated from free ligand using a Brandel cell harvester. Competition for the high affinity binding site was assessed under conditions that were identical to those used for measuring low affinity PDE activity, expect that [^3H]-cAMP and [^3H]5′-AMP were not present.

T1 sequence (P27815 1-686 isoform P27815-3): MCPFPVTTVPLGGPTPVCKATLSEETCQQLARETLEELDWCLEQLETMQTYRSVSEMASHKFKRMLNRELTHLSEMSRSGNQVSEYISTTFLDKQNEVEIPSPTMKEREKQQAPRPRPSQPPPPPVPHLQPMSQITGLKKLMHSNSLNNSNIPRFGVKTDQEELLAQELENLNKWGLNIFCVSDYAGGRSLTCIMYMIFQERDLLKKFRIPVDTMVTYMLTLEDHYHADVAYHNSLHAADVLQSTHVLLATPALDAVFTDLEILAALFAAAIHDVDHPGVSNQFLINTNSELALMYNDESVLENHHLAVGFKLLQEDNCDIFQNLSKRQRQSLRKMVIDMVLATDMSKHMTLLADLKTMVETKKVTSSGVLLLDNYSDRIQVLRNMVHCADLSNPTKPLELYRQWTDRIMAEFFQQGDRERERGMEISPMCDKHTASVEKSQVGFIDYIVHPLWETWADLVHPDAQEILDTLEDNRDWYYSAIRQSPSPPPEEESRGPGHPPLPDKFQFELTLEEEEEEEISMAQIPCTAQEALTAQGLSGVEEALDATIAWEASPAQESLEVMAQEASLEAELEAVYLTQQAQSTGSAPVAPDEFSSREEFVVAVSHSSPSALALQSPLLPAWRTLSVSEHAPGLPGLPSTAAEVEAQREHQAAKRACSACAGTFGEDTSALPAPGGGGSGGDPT

| Compound | High/Low Ratio (IC50 high affinity form divided by IC50 low affinity form) [2] | other results |
| --- | --- | --- |
| COc1ccc(C2(C#N)CCC(C(=O)O)CC2)cc1OC1CCCC1 (stereo not drawn) [cis-[4-cyano-4-(3-cyclopentyloxy-4-methoxyphenyl)cyclohexan-1-carboxylate]] |  | effect in subjects suffering from COPD [1]: reduced inflammation, bronchodilation and pulmonary neuromodulation |
| NC(=O)C(=O)NCCc1ccc(OC(F)F)c(OC(F)F)c1 [N-[2-(3,4-bisdifluoromethoxy-phenyl)ethyl]oxamide] | 0.25 |  |
| COC(=O)C1CC(C#N)(c2ccc(OC(F)F)c(OCC3CC3)c2)CCC1=O (centres unmarked) [2-carbomethoxy-4-cyano-4-(3-cyclopropylmethoxy-4-difluoromethoxyphenyl)cyclohexan-1-one] |  | improvement in therapeutic index [3]: 100 fold |
| CCOC(=O)C=C1C[C@H](c2ccc(OC)c(OC3CCCC3)c2)CN1 [(R)-(+)-ethyl [4-(3-cyclopentyloxy-4-methoxyphenyl)pyrrolidine-2-ylidene]acetate] | 2.143 |  |
| CCCCOc1cc(CC2CNC(=O)N2)ccc1OC (centres unmarked) [Ro 20-1724] |  | acid secretion [4]: enhance acid secretion |
| COc1ccc(C2CNC(=O)C2)cc1OC1CCCC1 (centres unmarked) [rolipram] |  | acid secretion [4]: enhance acid secretion; side effects [5]: has psychotropic activity and produces gastrointestinal effects |
| COc1ccc(C2CCC(c3nnn[nH]3)C2)cc1OC1CCCC1 (centres unmarked) [1-(5-tetrazole)-3-(3-cyclopentyloxy-4-methoxyphenyl)cyclopentane] | 0.0018 |  |
| CCOC(=O)C=C1C[C@@H](c2ccc(OC)c(OC3CCCC3)c2)CN1 [(S)-(−)-ethyl[4-(3-cyclopentyloxy-4-methoxyphenyl)pyrrolidine-2-ylidene]acetate] | .98 |  |
| COc1ccc(C2CN(Cc3ccc(N)cc3)C(=O)N2)cc1OC1CCCC1 (centres unmarked) [1-(4-aminobenzyl)-4-(3-cyclopentyloxy-4-methoxyphenyl)-2-imidazolidinone] | 0.07 |  |
| COc1ccc(CCNC(=O)C(N)=O)cc1OC1CCCC1 [N-[2-(3-cyclopentyloxy-4-methoxyphenyl)ethyl]oxamide] | 0.013 |  |
| OCCN(CCO)c1nc(N2CCCCC2)c2nc(N(CCO)CCO)nc(N3CCCCC3)c2n1 [dipyridamole, reference compound] | 6.25 |  |
| N#CC1(c2ccc(OC(F)F)c(OCC3CC3)c2)CCC(O)CC1 (stereo not drawn) [cis-[4-cyano-4-(3-cyclopropylmethoxy-4-difluoromethoxyphenyl)cyclohexan-1-ol]] |  | improvement in therapeutic index [3]: 100 fold |
| COc1ccc([C@@H]2CC[C@H](C(=O)O)C2)cc1OC1CCCC1 (relative stereo) [cis-[3-(3-cyclopentyloxy-4-methoxyphenyl)cyclopentane-1-carboxylate]] | 0.0078 | IC50 [6]: 21 nM |
| COc1ccc(C2CCN(Cc3ccc(NC(=NC#N)SC)cc3)C2=O)cc1OC1CCCC1 (centres unmarked) [3-(cyclopentyloxy-4-methoxyphenyl)-1-(4-N′-[N2-cyano-S-methyl-isothioureido]benzyl)-2-pyrrolidone] | 0.30 |  |
| CC(C)Cn1c(=O)n(C)c(=O)c2[nH]cnc21 [IBMX, reference compound] | 0.698 |  |
